Test results published in patent US5708018A, “2-aminoindans as selective dopamine D3 ligands” (Pharmacia & Upjohn Company, priority 1996, dated 1998).
Like-named read-outs stand apart in the source and are kept apart here.

Experiments:
D2 = target: T1, D2 (Rattus norvegicus, UniProt P61169); test: Competition binding, cloned mammalian D2 receptors expressed in CHO-K1 cells, [3H]-5-(dipropylamino)-5,6-dihydro-4H-imidazo(4,5,1-ij)quinolin-2(1H)-one (R-enantiomer); settings: radioligand 2 nM, IC50 from one-site fit, Ki by Chen-Prushoff equation
T1 construct: expressed in transfected cells; host or cells: CHO-K1
T1 sequence (P61169 whole entry): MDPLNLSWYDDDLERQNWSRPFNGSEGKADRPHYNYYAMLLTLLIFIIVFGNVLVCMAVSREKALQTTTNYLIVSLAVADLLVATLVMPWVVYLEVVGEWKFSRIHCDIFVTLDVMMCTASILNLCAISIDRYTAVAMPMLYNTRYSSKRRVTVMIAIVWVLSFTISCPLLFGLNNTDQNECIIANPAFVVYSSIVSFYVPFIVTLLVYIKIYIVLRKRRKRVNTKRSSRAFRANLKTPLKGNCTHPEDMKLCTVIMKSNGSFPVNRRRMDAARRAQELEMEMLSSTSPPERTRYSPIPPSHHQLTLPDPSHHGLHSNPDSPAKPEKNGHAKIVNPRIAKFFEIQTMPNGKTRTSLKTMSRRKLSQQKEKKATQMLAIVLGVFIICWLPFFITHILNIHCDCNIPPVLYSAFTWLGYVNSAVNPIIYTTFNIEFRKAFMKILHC
Procedure: (§1) Competition binding experiments employed eleven dilutions of test compounds competing with [^3 H]-5-(dipropylamino)-5,6-dihydro-4H-imidazo(4,5,1-ij)quinolin-2(1H)-one (R-enantiomer) (62 Ci/mmol, 2 nM) and [^3 H]-spiperone (107 Ci/mmol, 0.5 nM) for D2 and D3 binding sites, respectively. (Lahti, R. A., Eur. J. Pharmacol., 202, 289 (1991)) In each experiment, cloned mammalian receptors expressed in CHO-K1 cells were used. (Chio, C. L., Nature, 343, 266 (1990); and Huff, R. M., Mol. Pharmacol. (1993), in press). IC50 values were estimated by fitting the data to a one-site model by non-linear least squares minimization. Ki values were calculated with the Chen-Prushoff equation.

D3 = target: T2, D3 (Rattus norvegicus, UniProt P19020); test: Competition binding, cloned mammalian D3 receptors expressed in CHO-K1 cells, [3H]-spiperone
T2 construct: expressed in transfected cells; host or cells: CHO-K1
T2 sequence (P19020 whole entry): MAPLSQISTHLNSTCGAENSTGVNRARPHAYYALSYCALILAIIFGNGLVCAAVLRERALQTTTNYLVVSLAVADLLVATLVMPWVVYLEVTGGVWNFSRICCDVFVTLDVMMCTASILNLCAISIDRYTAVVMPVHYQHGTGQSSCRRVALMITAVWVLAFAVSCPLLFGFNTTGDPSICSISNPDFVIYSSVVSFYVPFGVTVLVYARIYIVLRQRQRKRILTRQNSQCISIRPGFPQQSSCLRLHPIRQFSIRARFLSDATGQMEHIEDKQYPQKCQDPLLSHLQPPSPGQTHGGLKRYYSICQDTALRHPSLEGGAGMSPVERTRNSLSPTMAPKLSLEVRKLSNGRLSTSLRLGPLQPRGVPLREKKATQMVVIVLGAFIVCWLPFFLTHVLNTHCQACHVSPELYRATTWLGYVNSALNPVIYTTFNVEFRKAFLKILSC
Procedure: as §1

[1] = cloned mammalian receptors in CHO-K1 cells, [3H]-spiperone 0.5 nM, IC50 from one-site fit, Ki by Chen-Prushoff equation, read-out: D3 (ki)

Ki (D3; [1])	Compound	Ki (D2)	Ki (D3)
	CCCN(CCC)C1Cc2cc(O)c(C(=O)OC)cc2C1 (centres unmarked) [Example 10, 5-(carbomethoxy)-6-hydroxy-2-(di-N-propylamino)indan]	121 nM	6.5 nM
	CCCN(CCC)C1Cc2ccc(OS(=O)(=O)C(F)(F)F)cc2C1 (centres unmarked) [Example 2]	350 nM	31 nM
3.7 nM	CCCN(CCC)C1Cc2ccc(OS(=O)(=O)c3ccc(C)cc3)cc2C1 (centres unmarked) [Example 17, Toluene-4-sulfonic acid 2-dipropylamino-indan-5-yl ester]	108 nM	
45 nM	CCCN(CCC)C1Cc2cc(OS(=O)(=O)c3ccc(C)cc3)c(OS(=O)(=O)c3ccc(C)cc3)cc2C1 [Example 32, 5,6 di-toluenesulfonyloxy-2-(di-n-propylamino)indan]	291 nM	
